From article PMC12195982, “Design, Synthesis, and In Vitro Evaluation of 4-(Arylchalcogenyl)methyl)-1H-1,2,3-triazol-1-yl-menadione: Exploring Their Potential Against Tuberculosis” (Pharmaceuticals, 2025)
≈ marks a conversion by molar mass, not a printed value.

Test system: INH- and RIF-resistant Mtb (strain T113/09, KatG and rpoB mutation)
Assay type: cell-based, Mycobacterium tuberculosis

SMILES | MIC INH/RIFR-Mtb | fold more potent than INH
CC1=C(Cn2cc(C[Se]c3ccc(Cl)cc3)nn2)C(=O)c2ccccc2C1=O [Compound 9b, 2-((4-(((4-chlorophenyl)selanyl)methyl)-1H-1,2,3-triazolyl)methyl)-3-methylnaphthalene-1,4-dione] | ≤3 mg/L | at least 7 fold
CC1=C(Cn2cc(C[Se]c3cccc(C(F)(F)F)c3)nn2)C(=O)c2ccccc2C1=O [Compound 9c] | >99 mg/L | –
CC1=C(Cn2cc(C[Se]c3ccccc3)nn2)C(=O)c2ccccc2C1=O [Compound 9a, 2-methyl-3-((4-((phenylselanyl)methyl)-1H-1,2,3-triazolyl)methyl)naphthalene-1,4-dione] | 3 mg/L (≈ 7.1 µM) | at least 7 fold
CC1=C(C(c2ccc(C)cc2)n2cc(C[Se]c3ccccc3)nn2)C(=O)c2ccccc2C1=O (stereo not shown) [Compound 9h, 2-methyl-3-((4-((phenylselanyl)methyl)-1H-1,2,3-triazolyl)(p-methylphenyl)methyl) naphthalene-1,4-dione] | ≤3 mg/L | at least 7 fold
NNC(=O)c1ccncc1 [INH, isoniazid, reference compound] | 8 mg/L (≈ 58.3 µM) | –
CC1=C(C(c2ccccc2)n2cc(C[Se]c3ccccc3)nn2)C(=O)c2ccccc2C1=O (stereo not shown) [Compound 9g, 2-methyl-3-(phenyl(4-((phenylselanyl)methyl)-1H-1,2,3-triazolyl)methyl)naphthalene-1,4-dione] | ≤3 mg/L | at least 7 fold
